Test results reported in patent publication US20250085201A1, “SUBSTITUTED QUADRUPOLAR FLUORESCENT DYES FOR LIVE CELL IMAGING” (Northwestern University, priority 2023, published 2025).

Experiment: Transient absorption (fsTA/nsTA) and time-resolved fluorescence spectroscopy
Type: physicochemical
Conditions: in H2O
Text: The excited-state properties of these quadrupolar dyes were investigated using transient absorption (TA) spectroscopy. The TA data of dyes 1-4 and 6 in MeCN with lex=350 nm (FIGS. 9-12 and 15) show similar spectra with the same general electronic evolution, though with differing kinetics. Following excitation, strong excited-state absorption features appear between ˜450-500 nm along with a strong single peak in the near-infrared region, both of which are associated with Sn←S1 absorptions. The visible bands redshift over the following ˜100 ps, while the near-infrared band peaks first blueshift in the initial ˜10 ps before settling. These near-infrared absorption bands are similar to those observed^59,60 in extended bipyridinium compounds. Following these shifts, the excited states decay via emission with lifetimes between 3-4 ns as confirmed by time-resolved fluorescence (TRF) spectroscopy. The spectral shape of the transient species is generally maintained throughout their lifetimes, implying that the dynamics in each dye all occur on a single electronic excited state (S1) prior to emission. The spectral shifts at early times may arise due to excited-state symmetry breaking^77-78 in the quadrupolar dyes, wherein fluctuations in the instantaneous electrostatic environment afforded by the solvent transiently favor wavefunction localization on one side of the symmetric molecule, creating an excited state with a large dipole moment that is associated with the Stokes shift observed^79 in the fluorescence spectra. This localization can lead to changes in the transient absorption spectra as a result of the breakdown^42,80 of the Laporte rule. The shifts at longer times may arise from solvent or structural relaxation of the dyes.
Steady-state and time-resolved emission spectra for dyes 1-6, 7·2PF6 and 9·4PF6 were acquired using a HORIBA Fluorolog-3 spectrofluorometer, equipped with a time-correlated single photon counting (TCSPC) module (diode laser excitation at λ=375 nm) and an integrating sphere, which was used for absolute photo-luminescence quantum yield determinations. Picosecond time-resolved fluorescence measurements were recorded using a commercial direct-diode-pumped 100 kHz amplifier (Spirit 1040-HE, Spectra-Physics), producing a fundamental beam of 1040 nm (350 fs, 12 W) which was used to pump a non-collinear optical parametric amplifier (Spirit-NOPA, SpectraPhysics) capable of delivering tunable, high-repetition-rate pulses with pulse widths as short as sub-20 fs. Dyes 1-6, 7·2PF6 and 9·4PF6 were excited with 350 nm, 2 nJ laser pulses. Fluorescence was detected using a Hamamatsu C4780 Streakscope as previously described in the literature. Samples were prepared in 2-mm quartz cuvettes. All data were acquired in the single-photon-counting mode using the Hamamatsu HPD-TA software. The temporal resolution was approximately 2% of the sweep window. Single wavelength kinetic analysis was performed using a nonlinear least-squares fit to a sum of exponentials convoluted with an instrument response function. Visible and near-infrared femtosecond and nanosecond transient absorption (fsTA and nsTA, respectively) spectroscopies were performed following descriptions already recorded in the literature. The 330 nm, ˜100 fs pump pulses were generated at 1 μJ per pulse using a commercial collinear optical parametric amplifier (TOPAS-Prime, Light-Conversion, Ltd.); 414-nm pump pulses were obtained by second-harmonic generation of the 828 nm fundamental. The pump polarization was randomized using a commercial depolarizer (DPU-25-A, Thorlabs, Inc.) to eliminate any orientational dynamics resulting from the experiment. Spectra were collected on commercial spectrometers (customized Ultrafast Systems Helios and EOS spectrometers, for fsTA and nsTA, respectively) for each time window. All samples were stirred to avoid localized heating or degradation effects. The optical density was maintained at 0.6 for all samples. […]

## COc1cc2c(OC)cc1-c1cc[n+](cc1)Cc1ccc(cc1)C[n+]1ccc(cc1)-c1cc(OC)c(cc1OC)-c1cc[n+](cc1)Cc1ccc(cc1)C[n+]1ccc-2cc1 [9·4Cl]
  rate constant k2 from TA data: (188 ± 4 ps)^−1 (ps)^−1
  rate constant k3 from TA data: (3.45 ± 0.01 ns)^−1 (ns)^−1
kR = kobsΦF
  radiative decay rate constant kR: (17.9 ± 0.6 ns)^−1 (ns)^−1
